Experimental data: patent US9296778B2, “3′,5′-cyclic phosphate prodrugs for HCV infection” (Idenix Pharmaceuticals, Inc., priority 2012, dated 2016)
Read-outs that look alike come from different tables or passages of the source.

Tests used:
[1] = tested on: HCV genotype 1b replicon; test: HCV Replicon Assay; type: cell-based; details: Zluc cells (Huh-7-derived, HCV genotype 1b replicon, luciferase reporter), 72 hours, read-out: HCV Replicon EC50
Procedure: Huh-7-derived cell line (Zluc) that harbors an HCV genotype 1b replicon and a luciferase reporter gene was grown in Dulbecco's Modified Eagle Medium (DMEM) supplemented with 10% fetal bovine serum, 2 mM GlutaMAX, 1% MEM nonessential amino acids, 100 IU/mL penicillin, 100 μg/mL streptomycin, and 0.5 mg/mL Geneticin® (G418). For dose response testing the cells were seeded in 96-well plates at 7.5×10^3 cells per well in a volume of 50 μL, and incubated at 37° C./5% CO2. Drug solutions were made up freshly in Huh-7 media as 2× stocks. Ten additional 5-fold dilutions were prepared from these stocks in DMEM without G418. At least three hours after Zluc cells were seeded, drug treatment was initiated by adding 50 μL of drug dilutions to the plates in duplicate. Final concentrations of drug ranged from 100 μM to […]. Cells were then incubated at 37° C./5% CO2. Alternatively, compounds were tested at two concentrations (1 μM and 10 μM). […] For this, media was removed from the plates via gentle tapping. Fifty microliters of ONE-glo luciferase assay reagent was added to each well. The plates were shaken gently for 3 min at room temperature and luminescence was measured on a Victor^3 V 1420 multilabel counter (Perkin Elmer) with a 1 second read time using a 700 nm cut-off filter. The EC50 values were calculated from dose response curves from the resulting best-fit equations determined by Microsoft Excel and XLfit 4.1 software. When screening at two fixed concentrations, the results were expressed as % inhibition at 1 μM and 10 μM.

[2] = tested on: Zluc cells; test: cytotoxicity evaluation (CellTiter-Blue Cell Viability Assay); details: read-out: HCV Replicon CC50; Zluc cells, CellTiter-Blue
[3] = tested on: fresh human hepatocytes; test: Release of active metabolite in fresh human hepatocytes; type: in vitro ADME; details: 10 μM compound; for FHH TP Cmax: fresh human hepatocytes; for FHH TP AUC: fresh human hepatocytes, 6, 24 and 48 hours
Procedure: Plates of fresh human and mouse hepatocytes were obtained on ice. The medium was removed and replaced with hepatocyte culture medium (William's E supplemented with penicillin-streptomycin, 1% L-glutamine, 1% insulin-transferrin-selenium and 0.1 μM Dexamethasone (Invitrogen) or with Invitro GRO HI medium complemented with Torpedo antibiotics (Celsis)). Cells were left overnight in an incubator at 37° C. to acclimatize to culture and the medium.
Hepatocyte incubations were conducted at a final volume of 0.5 mL hepatocyte culture medium/well (0.8 million cells/well for human and 0.5 million cells/well for mouse; 12 well plate no overlay, collagen coat). Culture medium from overnight incubation of cells was removed and replaced with fresh medium, pre-warmed to 37° C., containing 10 μM of test compound from a stock solution in DMSO (final DMSO concentration was 0.1%). At each specific time point, incubation medium was removed and cell monolayers were carefully washed two times with ice-cold PBS. Following the last wash, all PBS was carefully removed and 1.0 mL of extraction solution (ice-cold 70% methanol/30% water) added. Cells were scraped off and suspended in the extraction solution, transferred to 2 mL polypropylene microfuge tubes and intracellular contents extracted overnight at −20° C.
After the overnight treatment the cellular extracts were prepared by centrifugation at 16,000×g for 10 min to remove cellular debris. The remaining sample was then dried using a refrigerated centrivap concentrator. Dry extracts were reconstituted in 1000 μL of HPLC-grade water and centrifuged at 16,000×g for 10 min. Aliquots (100 μL each) of the supernatant were transferred into a 96 well plate and internal standard (4 ng/mL final concentration) was added as the internal standard (IS) for LC-MS/MS analysis.
The incubation time points were 6, 24 and 48 hours for human hepatocytes and 1, 4, 8, 12 and 24 hours for mouse hepatocytes.

[4] = in vitro; details: human, HCV Replicon CC50, Zluc cells, CellTiter-Blue

Row | Structure (SMILES) | EC50 [1] [nM] | CC50 [2] [nM] | FHH TP Cmax [3] | FHH TP AUC [3] | EC50 ([1]; Hepatitis C virus, 72 h) [nM] | CC50 [4] [nM]
1 | CCOc1nc(N)nc2c1ncn2[C@@H]1O[C@@H]2COP(=O)(OC[C@H](C)NC(=O)OCC(C)C)O[C@H]2[C@@]1(C)F (single isomer, unassigned; diastereomer 1) [Compound 12 Diastereomer 1] | < 250 | > 50000 |  |  |  | 
2 | CCOc1nc(N)nc2c1ncn2[C@@H]1O[C@@H]2COP(=O)(OCCSC(=O)C(C)(C)CO)O[C@H]2[C@@]1(C)OC(C)=O (single isomer, unassigned; diastereomer 1) [Compound 16 Diastereomer 1] | < 250 | < 50000 |  |  |  | 
3 | CC(C)(CO)C(=O)SCCOP1(=O)OC[C@H]2O[C@@H](n3cnc4c(=O)[nH]c(N)nc43)[C@](C)(F)[C@@H]2O1 (single isomer, unassigned; diastereomer 1) [Compound 17 Diastereomer 1] | 250 to 1000 | > 50000 |  |  |  | 
4 | CC(=O)OCC(C)(C)C(=O)SCCOP1(=O)OC[C@H]2O[C@@H](n3cnc4c(=O)[nH]c(N)nc43)[C@](C)(F)[C@@H]2O1 (single isomer, unassigned; diastereomer 1) [Compound 18 Diastereomer 1] | 250 to 1000 | > 50000 |  |  |  | 
5 | CCOc1nc(N)nc2c1ncn2[C@@H]1O[C@@H]2COP(=O)(OCCSC(=O)C(C)(C)COC(C)=O)O[C@H]2[C@@]1(C)OC(C)=O (single isomer, unassigned; diastereomer 1) [Compound 19 Diastereomer 1] | < 250 | < 50000 |  |  |  | 
6 | CCOc1nc(N)nc2c1ncn2[C@@H]1O[C@@H]2COP(=O)(OCCC(=O)OC(C)C)O[C@H]2[C@@]1(C)O (single isomer, unassigned; diastereomer 1) [Compound 22 Diastereomer 1] | < 250 | > 50000 | 44 pmol/mill cells | 1247 pmol · hr/mill cells |  | 
7 | COc1nc(N)nc2c1ncn2[C@@H]1O[C@@H]2COP(=O)(OCC(=O)OC(C)C)O[C@H]2[C@@]1(C)F (single isomer, unassigned; diastereomer 1) [Compound 26 Diastereomer 1] |  |  | BLD^a | BLD^a |  | 
8 | CCOC(=O)COP1(=O)OC[C@H]2O[C@@H](n3cnc4c(OCC)nc(N)nc43)[C@](C)(F)[C@@H]2O1 (single isomer, unassigned; diastereomer 2) [Compound 7 Diastereomer 2] | < 250 |  |  |  |  | 
9 | CC(C)(CO)C(=O)SCCOP1(=O)OC[C@H]2O[C@@H](n3cnc4c(=O)[nH]c(N)nc43)[C@](C)(F)[C@@H]2O1 (single isomer, unassigned; diastereomer 2) [Compound 17 Diastereomer 2] | < 250 | < 50000 |  |  |  | 
10 | CC(=O)OCC(C)(C)C(=O)SCCOP1(=O)OC[C@H]2O[C@@H](n3cnc4c(=O)[nH]c(N)nc43)[C@](C)(F)[C@@H]2O1 (single isomer, unassigned; diastereomer 2) [Compound 18 Diastereomer 2] | < 250 | < 50000 |  |  |  | 
11 | CCOc1nc(N)nc2c1ncn2[C@@H]1O[C@@H]2COP(=O)(OCCSC(=O)C(C)(C)COC(C)=O)O[C@H]2[C@@]1(C)OC(C)=O (single isomer, unassigned; diastereomer 2) [Compound 19 Diastereomer 2] | < 250 | < 50000 |  |  |  | 
12 | CCOC(=O)N[C@@H](C)COP1(=O)OC[C@H]2O[C@@H](n3cnc4c(OCC)nc(N)nc43)[C@](C)(F)[C@@H]2O1 (stereo partly drawn) [Compound 11] |  |  |  |  | < 250 | > 50000
13 | CCOc1nc(N)nc2c1ncn2[C@@H]1O[C@@H]2COP(=O)(OC[C@H](NC(=O)OC)C(=O)OC(C)C)O[C@H]2[C@@]1(C)F (stereo partly drawn) [Compound 15] |  |  | 36 pmol/mill cells | 1335 pmol · hr/mill cells | < 250 | > 50000
14 | CCOc1nc(N)nc2c1ncn2[C@@H]1O[C@@H]2COP(=O)(OCCC(=O)OC(C)C)O[C@H]2[C@@]1(C)F (stereo partly drawn) [Compound 21] |  |  |  |  | < 250 | > 50000
15 | CCOC(=O)CCCOP1(=O)OC[C@H]2O[C@@H](n3cnc4c(OC)nc(N)nc43)[C@](C)(O)[C@@H]2O1 (stereo partly drawn) [Compound 25] |  |  |  |  | 250 to 1000 | > 50000
16 | COc1nc(N)nc2c1ncn2[C@@H]1O[C@@H]2COP(=O)(OCC(=O)OC(C)C)O[C@H]2[C@@]1(C)F (stereo partly drawn) [Compound 26] |  |  |  |  | < 250 | > 50000
17 | COc1nc(N)nc2c1ncn2[C@@H]1O[C@@H]2COP(=O)(OCC(=O)OCc3ccccc3)O[C@H]2[C@@]1(C)O (stereo partly drawn) [Compound 27] |  |  |  |  | < 250 | < 50000
18 | COc1nc(N)nc2c1ncn2[C@@H]1O[C@@H]2COP(=O)(OCC(=O)OC(C)C)O[C@H]2[C@@]1(C)O (stereo partly drawn) [Compound 28] |  |  |  |  | < 250 | < 50000
19 | CCOC(=O)CCCOP1(=O)OC[C@H]2O[C@@H](n3cnc4c(OC)nc(N)nc43)[C@](C)(O)[C@@H]2O1 (stereo partly drawn) [Compound 29] | < 250 | < 50000 |  |  |  | 
20 | CCOC(=O)[C@@H](C)OP1(=O)OC[C@H]2O[C@@H](n3cnc4c(OC)nc(N)nc43)C(C)(O)[C@@H]2O1 (stereo partly drawn) [Compound 30] |  |  |  |  | 1000 to 10000 | > 50000
21 | CCOC(=O)C[C@@H](C)OP1(=O)OC[C@H]2O[C@@H](n3cnc4c(OC)nc(N)nc43)[C@](C)(O)[C@@H]2O1 (stereo partly drawn) [Compound 31] |  |  |  |  | 250 to 1000 | > 50000
22 | COc1nc(N)nc2c1ncn2[C@@H]1O[C@@H]2COP(=O)(OCC(=O)OC(C)C)O[C@H]2[C@@]1(C)OC(C)=O (stereo partly drawn) [Compound 32] |  |  |  |  | < 250 | < 50000
23 | COC(=O)c1ccccc1COP1(=O)OC[C@H]2O[C@@H](n3cnc4c(OC)nc(N)nc43)[C@](C)(O)[C@@H]2O1 (stereo partly drawn) [Compound 33] |  |  |  |  | < 250 | < 50000
24 | CCOC(=O)OC(C)OP1(=O)OC[C@H]2O[C@@H](n3cnc4c(OC)nc(N)nc43)[C@](C)(O)[C@@H]2O1 (stereo partly drawn) [Compound 34] |  |  |  |  | < 250 | < 50000
25 | COc1nc(N)nc2c1ncn2[C@@H]1O[C@@H]2COP(=O)(OCCSSCCO)O[C@H]2[C@@]1(C)O (stereo partly drawn) [Compound 37] |  |  |  |  | < 250 | < 50000
26 | CCOc1nc(N)nc2c1ncn2[C@@H]1O[C@@H]2COP(=O)(OCCCNC(=O)[C@@H]3OC(C)(C)OCC3(C)C)O[C@H]2[C@@]1(C)O (stereo partly drawn) [Compound 38] |  |  |  |  | < 250 | > 50000
27 | CCOc1nc(N)nc2c1ncn2[C@@H]1O[C@@H]2COP(=O)(OCCCNC(=O)[C@H](O)C(C)(C)CO)O[C@H]2[C@@]1(C)O (stereo partly drawn) [Compound 39] |  |  |  |  | < 250 | < 50000
